Results: patent US20120035187A1 (priority 2009, published 2012)
Marks after values point to notes of the source that are not given here.

What was measured:
[1] = tested on: ICR mice injected with amyloid β fragment; assay: Passive avoidance test, mouse injected with amyloid β fragment; type: in vivo; settings: for passive avoidance test (in words): mice injected with amyloid β fragment, vs amyloid β fragment alone; for Passive avoidance reaction: mouse administered with amyloid β fragment
Procedure: One hundred of ICR mice (male, five weeks of age, body weight of 25 to 30 g, commercialized by Charles Liver Laboratories Japan Inc., Kanagawa, Japan) were randomly divided into 10 groups, each consisting 10 heads, and raised separately until the experiment was terminated. Mice, which had been anesthetized with chloral hydrate (administered into the abdominal cavity in an amount of 350 mg/kg body weight, commercialized by SIGMA Corporation, Tokyo, Japan), were fixed at their dorsal decubitis parts, incised along their medial heads, and after confirming born suture, 9 nmol/6 μl/mouse of a solution of amyloid β fragment (β-Amyloid25-35), represented by amino acid sequence of SEQ ID No.: 1, was injected into their brain ventricles by puncturing at 1.0-mm left side and 0.5-mm backside from bregmas with a depth of 3 mm (the administration method is referred to “Brain Research”, Vol. 706, pp. 181-193 (1996)). A micro syringe with an […] stainless needle (3 mm length) was used for injection. The injection site was determined by confirming the staining at right-and-left lateral ventricles of the frontal section, dorsal third ventricle, and ventral third ventricle by injecting an Evans' Blue solution (0.3 μg/0.3 μl) in place of the solution of amyloid β fragment. The scalps were sutured after injection, any one of the compounds was administered intraperitoneally once a day over 13 days, and the behavioral score was determined by the method described below.
The captioned test is the one for evaluating animals' avoidance behavior to the once experienced aversive stimulus (electric stimulus) as an index of memory. In this experiment, step-through test was selected as a passive avoidance test, which uses the nature of mouse who favors dark room. Using an apparatus having a bright room and a dark room connected via a door, a mouse was placed in the bright room, and measured a time required for moving into the dark room as an index of memory. The passive avoidance test was performed on 9 to 12 days after the injection of amyloid β fragment into the ventricle. On the 9th day after the administration, the mouse was placed in the bright room (1,000 lux, 30-cm in depth, 30-cm in width and 15-cm in height) for a minute, and then placed in the dark room (30-cm in depth, 30-cm in width and 15-cm in height) for two minutes to be acclimatized. On the 10th day after the administration, the mouse was further acclimatized similarly as above. On the 11th day after the administration, the mouse was placed in the center of the bright room, and when the mouse moved into the dark room, the door between the rooms was immediately closed and the electric stimulus (0.8 mA, for a second) was given to the mouse. After 24 hours (on the 12th day after the administration), the mouse was placed in the center of the bright room as had been placed in the previous day, and the time required for moving into the dark room was measured as a passive avoidance reaction. When the mouse memorized the aversive electric stimulus, the passive avoidance reaction was elongated.

[2] = tested on: primary neuron (neuron, astrocyte and microglia) prepared from brain cortex of a rat fetus; assay: Amyloid β fragment disorder in primary neuron; type: cell-based; settings: concrete data not shown
Description: Though concrete data is not shown, using primary neuron (neuron, astrocyte and microglia) prepared from brain cortex of a rat fetus in place of PC12-HS cells, the influence of NK-4, NK-26, NK-234, NK-19 and NK-150 on amyloid β fragment disorder and hydrogen peroxide disorder was investigated.

[3] = tested on: PC12-HS cells; assay: Cytotoxicity by amyloid β fragment, cell survival (Evaluation C); type: cell-based; settings: for Cell survival percentage (%): PC12-HS cells + amyloid β fragment
Procedure: A plurality of peptide fragments (called “AMYLOID β FRAGMENT” commercialized by AnaSpec, Inc., CA, USA, each peptide having the amino acid sequence of SEQ ID NO:1), which have an amino acid sequence positioning from 25th to 35th from the N-terminus of amyloid R peptide with human origin and have been recognized as a main factor of neurocyte death in Alzheimer's disease, were diluted with phosphate buffered saline (PBS) to give a concentration of 2 mM, and used after being aged at 37° C. for six hours to coagulate them to increase their cytotoxicity before use. […] Viability (%) of cells in each well was determined and shown in Table 1 by calculating a relative value when the fluorescent intensity of the control was regarded as 100%. While, the supernatant of cell culture, which had been cultured under the same conditions as above, was removed, and the resulting cells were fixed by the addition of 1% by volume of glutaraldehyde, which had been prepared by diluting with PBS, in a volume of 100 μl/well for 30 min. Thereafter, the cells were stained with […] Hoechst 33258 dye commercialized by SIGMA Corporation, Tokyo, Japan, for five min, observed at a magnitude corresponding to a visual filed containing about 100 cells under a phase contrast microscope and a fluorescent microscope, and counted. The occupied percentage (%) of cells with apoptosis against the total cells in one visual field was calculated and the data was also shown in Table 1. The judgment of cells with apoptosis was made with an index of fragmentation of cell nuclei and chromatin aggregation within the nuclei.
Then, the effect of the above-compounds' concentrations on the cytotoxicity by amyloid β fragment was further investigated. The above 6-compounds and NK-4 were used as test samples, and the protective effects of these compounds against cytotoxicity by amyloid β fragment were evaluated by the same conditions as used in Evaluation C in Experiment 3, except for adding each compound to a well inoculated with PC12-HS cells to give a final concentration as shown in Table 7.

[4] = 50 μg/kg body weight i.p. once a day
[5] = 500 μg/kg body weight i.p. once a day
[6] = final concentration of compound 12.5 ng/ml
[7] = final concentration of compound 50 ng/ml
[8] = final concentration of compound 200 ng/ml
[9] = final concentration of compound 800 ng/ml

## CCN1C=CC(=CC=C(C=Cc2cc[n+](CC)c3ccccc23)c2cc[n+](CC)c3ccccc23)c2ccccc21.[I-].[I-] [NK-4]
[1]; [4]
  passive avoidance test (in words): significant improvement
[1]; [5]
  passive avoidance test (in words): significant improvement
[1]; dose 50 μg/kg body weight
  Passive avoidance reaction: 135 ± 24 s
[1]; dose 500 μg/kg body weight
  Passive avoidance reaction: 164 ± 16 s
[2]
  suppressing amyloid β fragment disorder: actions of suppressing
[3]; NK-4 200 ng/ml
  Survibal percentage of cells when admixed with cytotoxic factor (%) Amyloid β fragment: 129 ** %
[3]; NK-4 1000 ng/ml
  Survibal percentage of cells when admixed with cytotoxic factor (%) Amyloid β fragment: 97 ** %
[3]; NK-4 5000 ng/ml
  Survibal percentage of cells when admixed with cytotoxic factor (%) Amyloid β fragment: 97 ** %
[3]; PC12-HS cells
  minimum concentration exerting protection action against injury through amyloid β fragment: 40 ng/mL
[3]; [6]
  Cell survival percentage (%): 34 ± 1%
[3]; [7]
  Cell survival percentage (%): 69 ± 7%
[3]; [8]
  Cell survival percentage (%): 122 ± 32%
[3]; [9]
  Cell survival percentage (%): 89 ± 4%
[3]; PC12-HS cells, 50 μM amyloid β fragment, 3 days, NK-4 40 ng/ml
  Survibal percentage of cells when admixed with cytotoxic factor (%) Amyloid β fragment: 89 ** %

## CC[n+]1ccccc1/C=C/c1ccc(N(C)C)cc1 [NK-557]
[3]; [6]
  Cell survival percentage (%): 36 ± 3%
[3]; [7]
  Cell survival percentage (%): 114 ± 9%
[3]; [8]
  Cell survival percentage (%): 94 ± 11%
[3]; [9]
  Cell survival percentage (%): 73 ± 1%

## CCCN1C=CC(=CC=C(C=Cc2cc[n+](CCC)c3ccccc23)c2cc[n+](CCC)c3ccccc23)c2ccccc21.[I-].[I-] [NK-234]
[1]; [5]
  passive avoidance test (in words): significant improvement
[1]; dose 500 μg/kg body weight
  Passive avoidance reaction: 166 ± 8 s
[2]
  suppressing amyloid β fragment disorder: actions of suppressing

## CCN1/C(=C/C=C(/C=C/c2sc3ccccc3[n+]2CC)c2sc3ccccc3[n+]2CC)Sc2ccccc21.[I-].[I-] [NK-100]
[3]; [6]
  Cell survival percentage (%): 47 ± 2%
[3]; [7]
  Cell survival percentage (%): 88 ± 12%
[3]; [8]
  Cell survival percentage (%): 60 ± 5%
[3]; [9]
  Cell survival percentage (%): 44 ± 4%

## CCCCN1C=C/C(=C/C=C(/C=C/c2cc[n+](CCCC)c3ccccc23)c2cc[n+](CCCC)c3ccccc23)c2ccccc21 [NK-26]
[1]; [4]
  passive avoidance test (in words): significant improvement
[1]; [5]
  passive avoidance test (in words): significant improvement
[1]; dose 5 μg/kg body weight
  Passive avoidance reaction: 84 ± 25 s
[1]; dose 50 μg/kg body weight
  Passive avoidance reaction: 160 ± 14 s
[1]; dose 500 μg/kg body weight
  Passive avoidance reaction: 144 ± 13 s
[2]
  suppressing amyloid β fragment disorder: actions of suppressing

## CN(C)c1ccc(/C=C/c2oc3ccccc3[n+]2C)cc1 [NK-528]
[3]; [6]
  Cell survival percentage (%): 40 ± 9%
[3]; [7]
  Cell survival percentage (%): 36 ± 4%
[3]; [8]
  Cell survival percentage (%): 50 ± 10%
[3]; [9]
  Cell survival percentage (%): 111 ± 7%

## COc1ccc2oc(/C=C/c3ccc(N(C)C)cc3)[n+](C)c2c1 [NK-1516]
[3]; [6]
  Cell survival percentage (%): 34 ± 5%
[3]; [7]
  Cell survival percentage (%): 29 ± 5%
[3]; [8]
  Cell survival percentage (%): 31 ± 3%
[3]; [9]
  Cell survival percentage (%): 70 ± 11%
